Laboratory results reported in patent publication US10005739B2, “Quinazolinone and isoquinolinone derivative” (CHUGAI SEIYAKU KABUSHIKI KAISHA, priority 2013, dated 2018).
Where two headings read alike, the source gives them in different places.

Biological target: DDR1 (Homo sapiens (Human), UniProt Q08345)
Experiment: Measurement of DDR1 enzyme inhibitory activity (phosphorylation of biotinylated peptide, time-resolved fluorescence)
Assay type: biochemical
Settings: read-out: DDR1 enzyme inhibition assay IC50
Procedure: 1. Measurement of DDR1 Enzyme Inhibitory Activity
The DDR1 enzyme inhibitory activity was determined with human DDR1 enzyme prepared using the baculovirus expression system, based on the inhibitory activity of phosphorylation of a biotinylated peptide ([…]) by the enzyme. The phosphorylated biotinylated peptide was detected using time-resolved fluorescence, with an anti-phosphorylated tyrosine antibody conjugated with europium cryptate and streptavidin conjugated with XL665 which is a derivative of allophycocyanin.

[1] = human DDR1 enzyme, biotinylated peptide phosphorylation

Sequence of DDR1 (Q08345 19-913): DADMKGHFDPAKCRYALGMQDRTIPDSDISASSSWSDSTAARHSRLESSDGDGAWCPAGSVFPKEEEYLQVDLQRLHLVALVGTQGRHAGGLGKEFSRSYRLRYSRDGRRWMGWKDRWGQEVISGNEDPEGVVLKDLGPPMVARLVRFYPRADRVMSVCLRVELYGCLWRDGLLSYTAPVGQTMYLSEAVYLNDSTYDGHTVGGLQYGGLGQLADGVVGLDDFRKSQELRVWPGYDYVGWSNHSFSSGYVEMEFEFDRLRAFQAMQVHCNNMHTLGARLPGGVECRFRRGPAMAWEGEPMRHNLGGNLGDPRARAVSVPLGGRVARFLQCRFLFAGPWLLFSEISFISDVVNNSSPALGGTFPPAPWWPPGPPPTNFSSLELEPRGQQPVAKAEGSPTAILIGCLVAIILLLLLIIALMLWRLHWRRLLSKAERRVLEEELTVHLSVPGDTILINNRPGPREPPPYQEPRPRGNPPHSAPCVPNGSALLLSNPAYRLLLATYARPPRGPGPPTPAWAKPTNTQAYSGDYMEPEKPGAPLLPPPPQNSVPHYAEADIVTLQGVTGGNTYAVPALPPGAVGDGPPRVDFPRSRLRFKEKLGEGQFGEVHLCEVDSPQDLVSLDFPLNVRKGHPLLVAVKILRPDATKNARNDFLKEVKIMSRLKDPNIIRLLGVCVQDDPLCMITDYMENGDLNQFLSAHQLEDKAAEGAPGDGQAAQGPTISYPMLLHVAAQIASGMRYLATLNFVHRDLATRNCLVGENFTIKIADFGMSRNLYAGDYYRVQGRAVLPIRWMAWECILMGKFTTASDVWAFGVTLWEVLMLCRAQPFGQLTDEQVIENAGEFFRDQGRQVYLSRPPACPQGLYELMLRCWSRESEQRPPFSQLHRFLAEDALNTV

| IC50 [1] | IC50 | Compound |
| --- | --- | --- |
| 350 nM | – | CCSc1ccc(Cl)cc1Nn1cnc2cc3c(cc2c1=O)OCO3 [Compound A-40, 7-(5-Chloro-2-ethylsulfanylanilino)-[1,3]dioxolo[4,5-g]quinazolin-8-one] |
| 270 nM | – | CCSc1ccc(Cl)cc1Nn1cnc2cnc(OC)cc2c1=O [Compound A-21, 3-(5-Chloro-2-ethylsulfanylanilino)-6-methoxypyrido[3,4-d]pyrimidin-4-one] |
| 330 nM | – | CCOc1ccc(SCC)c(Nn2cnc3c(Br)cc(C(F)(F)F)cc3c2=O)c1 [Compound C-31, 8-Bromo-3-(5-ethoxy-2-ethylsulfanylanilino)-6-(trifluoromethyl)quinazolin-4-one] |
| 110 nM | – | CCSc1ccc(C#N)cc1Nn1cnc2c(Br)cc(C)cc2c1=O [Compound C-1, 3-[(8-Bromo-6-methyl-4-oxoquinazolin-3-yl)amino]-4-ethylsulfanylbenzonitrile] |
| 2080 nM | – | CCS(=O)(=O)c1ccc(N)cc1Cn1ccc2ccc(C(F)(F)F)cc2c1=O [Compound F-7, 2-[(5-Amino-2-ethylsulfonylphenyl)methyl]-7-(trifluoromethyl)isoquinolin-1-one] |
| 210 nM | – | CCSc1ccc(C#N)cc1Nn1cnc2ccc(OC(F)(F)F)cc2c1=O [Compound C-15, 4-Ethylsulfanyl-3-[[4-oxo-6-(trifluoromethoxy)quinazolin-3-yl]amino]benzonitrile] |
| 300 nM | – | CCS(=O)(=O)c1ccc(F)cc1Nn1cnc2c(Br)cc(C(F)(F)F)cc2c1=O [Compound C-22, 8-Bromo-3-(2-ethylsulfonyl-5-fluoroanilino)-6-(trifluoromethyl)quinazolin-4-one] |
| 110 nM | – | CCSc1ccc(Cl)cc1Nn1cnc2c(-c3ccc(F)cc3)cc(C)cc2c1=O [Compound A-3, 3-(5-Chloro-2-ethylsulfanylanilino)-8-(4-fluorophenyl)-6-methylquinazolin-4-one] |
| 200 nM | – | CCS(=O)(=O)c1ccc(Cl)cc1Cn1cnc2cc(C)c(I)cc2c1=O [Compound E-8, 3-[(5-Chloro-2-ethylsulfonylphenyl)methyl]-6-iodo-7-methylquinazolin-4-one] |
| 100 nM | – | CCSc1ccc(Cl)cc1Nn1cnc2cc(F)c(F)cc2c1=O [Compound A-30, 3-(5-Chloro-2-ethylsulfanylanilino)-6,7-difluoroquinazolin-4-one] |
| 110 nM | – | CCS(=O)(=O)c1ccc(Cl)cc1Nn1cnc2ccc(C)cc2c1=O [Compound A-51, 3-(5-Chloro-2-ethylsulfonylanilino)-6-methylquinazolin-4-one] |
| 420 nM | – | CCSc1ccc(Cl)cc1Nn1cnc2c(Br)cc(OC(F)(F)F)cc2c1=O [Compound A-46, 8-Bromo-3-(5-chloro-2-ethylsulfanylanilino)-6-(trifluoromethoxy)quinazolin-4-one] |
| 600 nM | – | CCS(=O)(=O)c1ccc(Cl)cc1Cn1cnc2c(Br)cc(C)cc2c1=O [Compound E-2, 8-Bromo-3-[(5-chloro-2-ethylsulfonylphenyl)methyl]-6-methylquinazolin-4-one] |
| 3100 nM | – | CCSc1ccc(Cl)cc1Nn1cnc2cc3c(cc2c1=O)OCCO3 [Compound A-42, 3-(5-Chloro-2-ethylsulfanylanilino)-7,8-dihydro-[1,4]dioxino[2,3-g]quinazolin-4-one] |
| 150 nM | – | CCS(=O)(=O)c1ccc(OC)cc1Nn1cnc2c(Br)cc(C(F)(F)F)cc2c1=O [Compound C-30, 8-Bromo-3-(2-ethylsulfonyl-5-methoxyanilino)-6-(trifluoromethyl)quinazolin-4-one] |
| 270 nM | – | CCS(=O)(=O)c1ccc(C#N)cc1Nn1cnc2ccc(OC(F)(F)F)cc2c1=O [Compound C-16, 4-Ethylsulfonyl-3-[[4-oxo-6-(trifluoromethoxy)quinazolin-3-yl]amino]benzonitrile] |
| 110 nM | – | CCSc1ccc(C#N)cc1Nn1cnc2c(Br)cc(OC(F)(F)F)cc2c1=O [Compound C-13] |
| 150 nM | – | Cc1cc(Br)c2ncn(Nc3cc(Cl)ccc3Sc3ccccc3)c(=O)c2c1 [Compound B-12, 8-Bromo-3-(5-chloro-2-phenylsulfanylanilino)-6-methylquinazolin-4-one] |
| 110 nM | – | CCS(=O)(=O)c1cc(Cl)c(Cl)cc1Nn1cnc2ccc(C(F)(F)F)cc2c1=O [Compound C-41, 3-(4,5-Dichloro-2-ethylsulfonylanilino)-6-(trifluoromethyl)quinazolin-4-one] |
| 1930 nM | – | CCS(=O)(=O)c1ccc(Cl)cc1Nn1cnc2cnc(OC)cc2c1=O [Compound A-22, 3-(5-Chloro-2-ethylsulfonylanilino)-6-methoxypyrido[3,4-d]pyrimidin-4-one] |
| 680 nM | – | CCS(=O)(=O)c1ccc(C#N)cc1Nn1cnc2cc(CN3CCOCC3)c(OC(F)(F)F)cc2c1=O [Compound G-8, 4-Ethylsulfonyl-3-[[7-(morpholin-4-ylmethyl)-4-oxo-6-(trifluoromethoxy)quinazolin-3-yl]amino]benzonitrile] |

| IC50 [1] | IC50 | Compound |
| --- | --- | --- |
| 490 nM | – | CCS(=O)(=O)c1ccc([N+](=O)[O-])cc1Cn1ccc2ccc(C(F)(F)F)cc2c1=O [Compound F-6, 2-[(2-Ethylsulfonyl-5-nitrophenyl)methyl]-7-(trifluoromethyl)isoquinolin-1-one] |
| 450 nM | – | CCSc1ccc(Cl)cc1Cn1cnc2ccc(C(F)(F)F)cc2c1=O [Compound E-15, 3-[(5-Chloro-2-ethylsulfanylphenyl)methyl]-6-(trifluoromethyl)quinazolin-4-one] |
| 280 nM | – | CCS(=O)(=O)c1ccc(Br)cc1Nn1cnc2c(Br)cc(OC(F)(F)F)cc2c1=O [Compound C-24, 8-Bromo-3-(5-bromo-2-ethylsulfonylanilino)-6-(trifluoromethoxy)quinazolin-4-one] |
| 110 nM | – | C=C(C)c1ccc2ncn(Nc3cc(Cl)ccc3S(=O)(=O)CC)c(=O)c2c1 [Compound A-62, 3-(5-Chloro-2-ethylsulfonylanilino)-6-prop-1-en-2-ylquinazolin-4-one] |
| 130 nM | – | CCSc1ccc(C#N)cc1Nn1cnc2cc(C)c(Br)cc2c1=O [Compound C-5, 3-[(6-bromo-7-methyl-4-oxoquinazolin-3-yl)amino]-4-ethylsulfanylbenzonitrile] |
| 1470 nM | – | N#Cc1ccc(S(=O)(=O)c2ccccc2)c(Nn2cnc3ccc(C(F)(F)F)cc3c2=O)c1 [Compound B-16, 4-(Benzenesulfonyl)-3-[[4-oxo-6-(trifluoromethyl)quinazolin-3-yl]amino]benzonitrile] |
| 88 nM | – | CCSc1ccc(Cl)cc1Nn1cnc2ccc(F)cc2c1=O [Compound A-28, 3-(5-Chloro-2-ethylsulfanylanilino)-6-fluoroquinazolin-4-one] |
| 640 nM | – | CCSc1ccc(Cl)cc1Cn1cnc2c(Br)cc(C)cc2c1=O [Compound E-1, 8-Bromo-3-[(5-chloro-2-ethylsulfanylphenyl)methyl]-6-methylquinazolin-4-one] |
| 330 nM | – | CCCc1ccc2ncn(Nc3cc(Cl)ccc3SCC)c(=O)c2c1 [Compound A-54, 3-(5-Chloro-2-ethylsulfanylanilino)-6-propylquinazolin-4-one] |
| 340 nM | – | CCS(=O)(=O)c1ccc(Cl)cc1Nn1cnc2ccc(F)cc2c1=O [Compound A-29, 3-(5-Chloro-2-ethylsulfonylanilino)-6-fluoroquinazolin-4-one] |
| 480 nM | – | CCSc1ccc(Cl)cc1Cn1cnc2ccc(OC(F)(F)F)cc2c1=O [Compound E-3, 3-[(5-Chloro-2-ethylsulfanylphenyl)methyl]-6-(trifluoromethoxy)quinazolin-4-one] |
| 600 nM | – | CCS(=O)(=O)c1ccc(Cl)cc1Nn1cnc2cc3c(cc2c1=O)OCCO3 [Compound A-43, 3-(5-Chloro-2-ethylsulfonylanilino)-7,8-dihydro-[1,4]dioxino[2,3-g]quinazolin-4-one] |
| – | 90 nM | CCS(=O)(=O)c1ccc(Cl)cc1Cn1cnc2c(Br)c(CN3CCNCC3)c(Br)cc2c1=O [Compound L-11, 6,8-Dibromo-3-[(5-chloro-2-ethylsulfonylphenyl)methyl]-7-(piperazin-1-ylmethyl)quinazolin-4-one] |
| 480 nM | – | CCSc1ccc(Cl)cc1Nn1cnc2ccc(N)cc2c1=O [Compound A-59, 6-Amino-3-(5-chloro-2-ethylsulfanylanilino)quinazolin-4-one] |
| 170 nM | – | CCSc1ccc(C(F)(F)F)cc1Nn1cnc2c(Br)cc(C(F)(F)F)cc2c1=O [Compound C-34, 8-Bromo-3-[2-ethylsulfanyl-5-(trifluoromethyl)anilino]-6-(trifluoromethyl)quinazolin-4-one] |
| 240 nM | – | CCS(=O)(=O)c1ccc(Cl)cc1Nn1cnc2c(I)cc(C(F)(F)F)cc2c1=O [Compound A-13, 3-(5-Chloro-2-ethylsulfonylanilino)-8-iodo-6-(trifluromethyl)quinazolin-4-one] |
| 330 nM | – | CC(C)Cc1ccc(Cl)cc1Nn1cnc2ccc(OC(F)(F)F)cc2c1=O [Compound B-19, 3-[5-Chloro-2-(2-methylpropyl)anilino]-6-(trifluoromethoxy)quinazolin-4-one] |
| 93 nM | – | CCSc1cnc(Cl)cc1Nn1cnc2ccc(C(F)(F)F)cc2c1=O [Compound D-6, 3-[(2-Chloro-5-ethylsulfanylpyridin-4-yl)amino]-6-(trifluoromethyl)quinazolin-4-one] |
| 250 nM | – | CSc1ccc(Cl)cc1Nn1cnc2c(Br)cc(C)cc2c1=O [Compound B-1, 8-Bromo-3-(5-chloro-2-methylsulfanylanilino)-6-methylquinazolin-4-one] |
| – | 170 nM | CCS(=O)(=O)c1ccc(Cl)cc1Cn1cnc2cc(CN3CC[C@@H](N)C3)c(Br)cc2c1=O [Compound J-7, 7-[[(3R)-3-aminopyrrolidin-1-yl]methyl]-6-bromo-3-[(5-chloro-2-ethylsulfonylphenyl)methyl]quinazolin-4-one] |
| 160 nM | – | Cc1cc(Br)c2ncn(Nc3cc(Cl)ccc3S(C)(=O)=O)c(=O)c2c1 [Compound B-2, 8-Bromo-3-(5-chloro-2-methylsulfonylanilino)-6-methylquinazolin-4-one] |
